Assay results: US20200331904A1, “3-AMINO-[1,2,4]-TRIAZOLE DERIVATIVES AND THEIR USE FOR CONTROLLING UNDESIRED PLANT GROWTH” (Bayer CropScience Aktiengesellschaft, priority 2017, published 2020)

Key:
Assay type in all cases: in vivo
Setaria viridis = experiment: Pre-emergence herbicidal efficacy, SETVI; conditions: Table B1, application rate 320 g/ha, scored visually after about 3 weeks vs untreated controls
Method in brief: (§1)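 Visual percent activity relative to untreated plants (0% = like control, 100% = dead), scored about 3 weeks after treatment under greenhouse conditions.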

Veronica persica [1] = experiment: Pre-emergence herbicidal efficacy, VERPE; conditions: Table B1, application rate 320 g/ha, scored visually after about 3 weeks vs untreated controls
Method in brief: as §1

Echinochloa crus-galli [2] = experiment: Pre-emergence herbicidal efficacy, ECHCG; conditions: Table B1, application rate 320 g/ha, scored visually after about 3 weeks vs untreated controls
Method in brief: as §1

Amaranthus retroflexus [3] = experiment: Pre-emergence herbicidal efficacy, AMARE; conditions: Table B1, application rate 320 g/ha, scored visually after about 3 weeks vs untreated controls
Method in brief: as §1

Stellaria media [4] = experiment: Pre-emergence herbicidal efficacy, STEME; conditions: Table B1, application rate 320 g/ha, scored visually after about 3 weeks vs untreated controls
Method in brief: as §1

Veronica persica [5] = experiment: Post-emergence herbicidal efficacy, VERPE; conditions: application rate 320 g/ha
Source text: (§2) ABUTH: Abutilon theophrasti ALOMY: Alopecurus myosuroides AMARE: Amaranthus retroflexus AVEFA: Avena fatua CYPES: Cyperus esculentus ECHCG: Echinochloa crus-galli LOLMU: Lolium multiflorum MATIN: Matricaria inodora PHBPU: Ipomoea purpurea POLCO: Polygonum convolvulus SETVI: Setaria viridis STEME: Stellaria media VERPE: Veronica persica VTOTR: Viola tricolor
(§3) C.2 Post-Emergence Herbicidal Action and Crop Plant Compatibility
(§4) Seeds of monocotyledonous and dicotyledonous weeds and crop plants are placed in sandy loam in plastic or organic planting pots, covered with soil and cultivated in a greenhouse under controlled growth conditions. 2 to 3 weeks after sowing, the test plants are treated at the one-leaf stage. The compounds of the invention, formulated in the form of wettable powders (WP) or as emulsion concentrates (EC), are then sprayed onto the green parts of the plants as aqueous suspension or emulsion with addition of 0.5% additive at a water application rate of […] (converted). After the test plants had been kept in the greenhouse under optimum growth conditions for about 3 weeks, the activity of the preparations is rated visually in comparison to untreated controls. For example, 100% activity=the plants have died, 0% activity=like control plants.

Abutilon theophrasti = experiment: Pre-emergence herbicidal efficacy, ABUTH; conditions: Table B1, application rate 320 g/ha, scored visually after about 3 weeks vs untreated controls
Method in brief: as §1

Polygonum convolvulus = experiment: Pre-emergence herbicidal efficacy, POLCO; conditions: Table B1, application rate 320 g/ha, scored visually after about 3 weeks vs untreated controls
Method in brief: as §1

Matricaria inodora = experiment: Pre-emergence herbicidal efficacy, MATIN; conditions: Table B1, application rate 320 g/ha, scored visually after about 3 weeks vs untreated controls
Method in brief: as §1

Viola tricolor [6] = experiment: Post-emergence herbicidal efficacy, VIOTR; conditions: application rate 320 g/ha
Source text: as §2, §3, §4

Viola tricolor [7] = experiment: Pre-emergence herbicidal efficacy, VIOTR; conditions: Table B1, application rate 320 g/ha, scored visually after about 3 weeks vs untreated controls
Method in brief: as §1

Lolium rigidum [8] = experiment: Pre-emergence herbicidal efficacy, LOLRI; conditions: Table B1, application rate 320 g/ha, scored visually after about 3 weeks vs untreated controls
Method in brief: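 Seeds sown in pots and covered with soil. Greenhouse-grown about 3 weeks, then visually scored as % activity vs untreated controls (100% = dead, 0% = like control).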

Amaranthus retroflexus [9] = experiment: Post-emergence herbicidal efficacy, AMARE; conditions: application rate 320 g/ha, rated visually after about 3 weeks
Source text: as §2, §3, §4

Lolium rigidum [10] = experiment: Post-emergence herbicidal efficacy, LOLRI; conditions: application rate 320 g/ha, rated visually after about 3 weeks
Protocol: as §3, §4

Echinochloa crus-galli [11] = experiment: Post-emergence herbicidal efficacy, ECHCG; conditions: application rate 320 g/ha, rated visually after about 3 weeks
Source text: as §2, §3, §4

Stellaria media [12] = experiment: Post-emergence herbicidal efficacy, STEME; conditions: application rate 320 g/ha, rated visually after about 3 weeks
Source text: as §2, §3, §4

[13] = rated visually after about 3 weeks (Table B7)
[14] = rated visually after about 3 weeks (Table B5)

Row | Compound | Herbicidal efficacy against SETVI (Setaria viridis) [%] | Herbicidal efficacy against VERPE (Veronica persica [1]) [%] | Herbicidal efficacy against ECHCG (Echinochloa crus-galli [2]) [%] | Herbicidal efficacy against AMARE (Amaranthus retroflexus [3]) [%] | Herbicidal efficacy against STEME (Stellaria media [4]) [%] | Herbicidal efficacy against VERPE (Veronica persica [5]; [13]) [%] | Herbicidal efficacy against ABUTH (Abutilon theophrasti) [%] | Herbicidal efficacy against POLCO (Polygonum convolvulus) [%] | Herbicidal efficacy against MATIN (Matricaria inodora) [%] | Herbicidal efficacy against VIOTR (Viola tricolor [6]; [13]) [%] | Herbicidal efficacy against VIOTR (Viola tricolor [7]) [%] | Herbicidal efficacy against LOLRI (Lolium rigidum [8]) [%] | Herbicidal efficacy against AMARE (Amaranthus retroflexus [9]) [%] | Herbicidal efficacy against VERPE (Veronica persica [5]; [14]) [%] | Herbicidal efficacy against LOLRI (Lolium rigidum [10]) [%] | Herbicidal efficacy against ECHCG (Echinochloa crus-galli [11]) [%] | Herbicidal efficacy against STEME (Stellaria media [12]) [%] | Herbicidal efficacy against VIOTR (Viola tricolor [6]; [14]) [%]
1 | Cc1ccc2c(c1)[C@H](Nc1nc3n(n1)CCN(S(=O)(=O)C1CC1)C3)CCC2 [Example I-200] | 100 | 100 | 100 | 100 | 100 | 100 | 100 | 100 | 100 | 80 | 100 | 100 |  |  |  |  |  | 
2 | Fc1cccc2c1CCC[C@H]2Nc1nc2n(n1)CCCCS2 [Example I-213] | 100 | 100 | 100 | 100 | 100 | 90 | 100 | 100 | 100 | 90 | 100 | 100 |  |  |  |  |  | 
3 | Cc1ccc2c(c1)C(Nc1nc3n(n1)CCC(=O)N3C)CC2 (stereo not shown) [Example I-227] | 100 | 100 | 100 | 100 | 100 | 100 | 100 | 100 | 100 | 90 | 100 | 100 |  |  |  |  |  | 
4 | Cc1ccc2c(c1)C(Nc1nc3n(n1)CCCCS3(=O)=O)CC2 (stereo not shown) [Example I-232] | 100 | 100 | 100 | 100 | 100 |  | 100 | 100 | 100 |  | 100 | 100 | 100 | 90 | 90 | 80 | 100 | 90
5 | Cc1ccc2c(c1)C(Nc1nc3n(n1)CCCCS3(=O)=O)CCC2 (stereo not shown) [Example I-234] | 100 | 100 | 100 | 100 | 100 | 80 | 100 | 100 | 100 | 90 | 100 | 100 |  |  |  |  |  | 
6 | Cc1ccc2c(c1)C(Nc1nc3n(n1)CCCC[S+]3[O-])CC2 (stereo not shown) [Example I-245] | 100 | 100 | 100 | 100 | 100 | 90 | 100 | 100 | 100 | 80 | 100 | 100 |  |  |  |  |  | 
